# Values of other authors, collected in US7799335B2, “Differential delivery of nitric oxide” (Boston Scientific Scimed, Inc., priority 2001, dated 2010).
# Key:
# vasodilation = conditions: compared with SNAP
# platelet aggregation = conditions: compared with SNAP
# [1] = tested on: human aortic vascular smooth muscle cells; conditions: exogenously and endogenously produced nitric oxide, 10^−5 to 10^−3 molar; Tanner et al. 2000
# endothelial cells = conditions: low levels of nitric oxide (SNP 10-50 uM); Rossig et al. 2000
SMILES,effectiveness as vasodilator (vasodilation),inhibition of platelet aggregation (platelet aggregation),effect on smooth muscle cell proliferation [1],effect on TNF-alpha induced apoptosis (endothelial cells)
"N[C@@H](CCC(=O)N[C@@H](CSN=O)C(=O)NCC(=O)O)C(=O)O [GSN70, S-nitrosoglutathione]",less effective vasodilator than SNAP,the opposite is true,,
[N]=O [nitric oxide],,,prevented smooth muscle cell proliferation by inducing G1 phase arrest,prevented TNF-alpha induced apoptosis in endothelial cells
